Experimental data reported in patent US20260248784A1, “BTK Degrader and Use Thereof” (JIANGSU VCARE PHARMATECH CO., LTD., priority 2023, published 2026).
Where two headings read alike, the source gives them in different places.

Tested on: mino cells
Assay: Activity test in Mino cells (CCK8 proliferation inhibition)
Assay type: cell-based
Details: 3 days, read-out: Cell inhibition IC50
Protocol: Cell culture: mino cells (culture conditions: RPMI1640 medium+15% FBS, 37° C., 5% CO2). Cell plating: The cells subcultured into the logarithmic growth phase were collected and transferred into a centrifuge tube, and centrifuged at 800 rpm for 5 min. The cells were resuspended in complete medium and counted. The cells were diluted and adjusted to a final concentration of 200000 cells/mL. The cells were then seeded into a 96-well plate with 100 μL per well. Cell administration: Each group of drug solutions was added into the 96-well plate, 100 μL per well, n=3 for each drug concentration. Meanwhile, negative wells (n=6) and blank wells (n=3) were set up. The 96-well plate was incubated in the incubator for further 3 days. CCK8 reagent was added to the 96-well plate, 20 μL per well, and then the plate was placed in the incubator for further 4 h. The absorbance of the solution was measured at a wavelength of 450 nm using an enzyme reader. The proliferation inhibition rate was calculated and the half inhibitory concentration IC50 value was calculated.

COc1ccc(F)cc1C(=O)NCc1ccc(-c2nn(-c3ccc(N4CCN(CC5CCN(c6ccc7c(c6)CN(C6CCC(=O)NC6=O)C7=O)CC5)CC4)nc3)c3ccnc(N)c23)cc1 (stereo not drawn) [II-12, N-(4-(4-amino-1-(6-(4-((1-(2-(2,6-dioxopiperidin-3-yl)-1-oxoisoindol-5-yl)piperidin-4-yl)methyl)piperazin-1-yl)pyridin-3-yl)-1H-pyrazolo[4,3-c]pyridin-3-yl)benzyl)-5-fluoro-2-methoxybenzamide]
IC50 (Homo sapiens, 72 h): < 500 nM

COc1ccc(F)cc1C(=O)NCc1ccc(-c2nc(-c3ccc(N4CC5CC(C4)N5CC4CCN(c5ccc(N6CCC(=O)NC6=O)c(C)c5)CC4)cc3)n3ccnc(N)c23)cc1 [Compound I-53]
IC50 (Homo sapiens, 72 h): < 50 nM

COc1ccc(F)cc1C(=O)NCc1ccc(-c2nn(-c3ccc(N4CCN(CC5CCN(c6ccc7c(c6)CN(C6CCC(=O)NC6=O)C7=O)CC5)CC4)nc3)c3ncnc(N)c23)cc1F (stereo not drawn) [II-5, N-(4-(4-amino-1-(6-(4-((1-(2-(2,6-dioxopiperidin-3-yl)-1-oxoisoindolin-5-yl)piperidin-4-yl)methyl)piperazin-1-yl)pyridin-3-yl)-1H-pyrazolo[3,4-d]pyrimidin-3-yl)-2-fluorobenzyl)-5-fluoro-2-methoxybenzamide]
IC50 (Homo sapiens, 72 h): 9 nM

COc1ccc(F)cc1C(=O)NCc1ccc(-c2nn(-c3ccc(N4CCC(CN5CCN(c6ccc(N7CCC(=O)NC7=O)c(C)c6)CC5)CC4)cc3)c3ncnc(N)c23)cc1 [Compound I-42]
IC50 (Homo sapiens, 72 h): < 25 nM

COc1ccc(F)cc1C(=O)NCc1ccc(-c2nn(-c3ccc(N4CCN(CC5CCN(c6ccc(N7CCC(=O)NC7=O)c(C)c6)CC5)CC4)nc3)c3ncnc(N)c23)cc1C [Compound I-4]
IC50: 62 nM

COc1ccc(F)cc1C(=O)NCc1ccc(-c2nn(-c3ccc(N4CCN(CC5CCN(c6ccc(N7CCC(=O)NC7=O)c(C)c6)CC5)CC4)cc3)c3ncnc(N)c23)cc1 [Compound I-9]
IC50 (Homo sapiens, 72 h): < 25 nM

COc1ccc(F)cc1C(=O)NCc1ccc(-c2nn(-c3ccc(C4CCN(CC5CCN(c6ccc7c(c6)C(=O)N(C6CCC(=O)NC6=O)C7)CC5)CC4)cc3)c(N)c2C(N)=O)cc1 (stereo not drawn) [II-39]
IC50 (Homo sapiens, 72 h): < 25 nM

COc1ccc(F)cc1C(=O)NCc1ccc(-c2nc(-c3ccc(N4CCN(CC5CCN(c6ccc(N7CCC(=O)NC7=O)c(C)c6)CC5)CC4)nc3)n3ccnc(N)c23)cc1 [Compound I-30]
IC50 (Homo sapiens, 72 h): < 50 nM

COc1ccc(F)cc1C(=O)NCc1ccc(-c2nn(-c3ccc(N4CCN(CC5CCN(c6ccc(N7CCC(=O)NC7=O)c(C)c6)CC5)C[C@H]4C)nc3)c3ncnc(N)c23)cc1 [Compound I-41]
IC50 (Homo sapiens, 72 h): < 25 nM

COc1ccc(F)cc1C(=O)NCc1ccc(-c2nn(-c3ccc(C4CCN(CC5CCN(c6ccc(N7CCC(=O)NC7=O)c(C)c6)CC5)CC4)cc3)c(N)c2C(N)=O)cc1 [Compound I-11, 5-amino-1-(4-(1-(1-(4-(2,4-dioxotetrahydropyrimidin-1(2H)-yl)-3-methylphenyl)piperidin-4-yl)methyl)piperidin-4-yl)phenyl)-3-(4-(((5-fluoro-2-methoxybenzamido)methyl)phenyl)-1H-pyrazole-4-carboxamide]
IC50 (Homo sapiens, 72 h): < 25 nM

COc1ccc(F)cc1C(=O)NCc1ccc(-c2nn(-c3ccc(N4CCN(CC5CCN(c6ccc7c(c6)C(=O)N(C6CCC(=O)NC6=O)C7=O)CC5)CC4)nc3)c3ncnc(N)c23)cc1 (stereo not drawn) [II-3, N-(4-4-amino-1-(6-(4-(1-(2,6-dioxopiperidin-3-yl)-1,3-dioxoisoindolin-5-ylpiperidin-4-yl)methylpiperazin-1-ylpyridin-3-yl)-1H-pyrazolo[3,4-d]pyrimidin-3-yl)benzyl)-5-fluoro-2-methoxybenzamide]
IC50 (Homo sapiens, 72 h): 17 nM

COc1ccc(F)cc1C(=O)NCc1ccc(-c2nn(-c3ccc(C4CCN(CC5CCN(c6ccc7c(c6)C(=O)N(C6CCC(=O)NC6=O)C7=O)CC5)CC4)nc3)c3ncnc(N)c23)cc1 (stereo not drawn) [II-7, N-(4-(4-amino-1-(6-(1-((1-(2-(2,6-dioxopiperidin-3-yl)-1,3-dioxoisoindolin-5-yl)piperidin-4-yl)methyl)piperidin-4-yl)pyridin-3-yl)-1H-pyrazolo[3,4-d]pyrimidin-3-yl)benzyl)-5-fluoro-2-methoxybenzamide]
IC50 (Homo sapiens, 72 h): 18 nM

COc1ccc(F)cc1C(=O)NCc1ccc(-c2nn(-c3ccc(N4CCN(CC5CCN(c6ccc7c(c6)C(=O)N(C6CCC(=O)NC6=O)C7)CC5)CC4)nc3)c(N)c2C(N)=O)cc1 (stereo not drawn) [II-34, 5-amino-1-(6-(4-((1-(2-(2,6-dioxopiperidin-3-yl)-3-oxoisoindolin-5-yl)piperidin-4-yl)methyl)piperazin-1-yl)pyridin-3-yl)-4-(((5-fluoro-2-methoxybenzamido)methyl)phenyl)-1H-pyrazole-4-carboxamide]
IC50 (Homo sapiens, 72 h): < 25 nM

COc1ccc(F)cc1C(=O)NCc1ccc(-c2nc(-c3ccc(C4=CCN(CC5CCN(c6ccc(N7CCC(=O)NC7=O)c(C)c6)CC5)CC4)cc3)n3ccnc(N)c23)cc1 [Compound I-50]
IC50 (Homo sapiens, 72 h): < 25 nM

COc1ccc(F)cc1C(=O)NCc1ccc(-c2nn(-c3ccc(N4CCC(CN5CCN(c6ccc7c(c6)C(=O)N(C6CCC(=O)NC6=O)C7)CC5)CC4)nc3)c3ncnc(N)c23)cc1 (stereo not drawn) [II-4, N-(4-(4-amino-1-(6-(4-((4-(2-(2,6-dioxopiperidin-3-yl)-3-oxoisoindolin-5-yl)piperazin-1-yl)methyl)piperidin-1-yl)pyridin-3-yl)-1H-pyrazolo[3,4-d]pyrimidin-3-yl)benzyl)-5-fluoro-2-methoxybenzamide]
IC50 (Homo sapiens, 72 h): 12 nM

COc1ccc(F)cc1C(=O)NCc1ccc(-c2nc(-c3ccc(N4CCN(CC5CCN(c6ccc(N7CCC(=O)NC7=O)c(C)c6)CC5)CC4)cc3)n3ccnc(N)c23)c(F)c1 [Compound I-47]
IC50 (Homo sapiens, 72 h): < 25 nM

Nc1ncnc2c1c(-c1ccc(Oc3ccccc3)cc1)nn2-c1ccc(N2CCN(C[C@@H]3CCCC[C@H]3CN3CCN(c4ccc5c(c4)CN(C4CCC(=O)NC4=O)C5=O)CC3)CC2)nc1 (stereo partly drawn) [III-19, 3-(5-(4-(((1R,2R)-2-((4-(5-(4-amino-3-(4-phenoxyphenyl)-1H-pyrazolo[3,4-d]pyrimidin-1-yl)pyridin-2-yl)piperazin-1-yl)methyl)cyclohexyl)methyl)piperazin-1-yl)-1-oxoisoindolin-2-yl)piperidine-2,6-dione]
IC50 (Homo sapiens, 72 h): < 100 nM

COc1ccc(F)cc1C(=O)NCc1ccc(-c2nn(-c3ccc(C4CCN(CC5CCN(c6ccc(N7CCC(=O)NC7=O)c(C)c6)CC5)CC4)nc3)c3ncnc(N)c23)cc1 [Compound I-7, N-(4-(4-amino-1-(6-(1-((1-(4-(2,4-dioxotetrahydropyrimidin-1(2H)-yl)-3-methylphenyl)piperidin-4-yl)methyl)piperidin-4-yl)pyridin-3-yl)-1H-pyrazolo[3,4-d]pyrimidin-3-yl)benzyl)-5-fluoro-2-methoxybenzamide]
IC50 (Homo sapiens, 72 h): < 50 nM

COc1ccc(F)cc1C(=O)NCc1ccc(-c2nn(-c3ccc(N4CCN(CC5CCN(c6ccc7c(c6)C(=O)N(C6CCC(=O)NC6=O)C7)CC5)CC4)cc3)c(N)c2C(N)=O)cc1 (stereo not drawn) [II-10]
IC50 (Homo sapiens, 72 h): < 25 nM

COc1ccc(F)cc1C(=O)NCc1ccc(-n2c(=O)n(-c3ccc(N4CCN(CC5CCN(c6ccc(N7CCC(=O)NC7=O)c(C)c6)CC5)CC4)cc3)c3ccnc(N)c32)cc1 [Compound I-48]
IC50 (Homo sapiens, 72 h): < 25 nM

Nc1ncnc2c1c(-c1ccc(Oc3ccccc3)cc1)nn2-c1ccc(N2CCC(CN3CCN(c4ccc5c(c4)C(=O)N(C4CCC(=O)NC4=O)C5=O)CC3)CC2)nc1 (stereo not drawn) [II-37, 5-(4-((1-(5-(4-amino-3-(4-phenoxyphenyl)-1H-pyrazolo[3,4-d]pyrimidin-1-yl)pyridin-2-yl)piperidin-4-yl)methyl)piperazin-1-yl)-2-(2,6-dioxopiperidin-3-yl) isoindoline-1,3-dione]
IC50 (Homo sapiens, 72 h): < 25 nM

COc1ccc(F)cc1C(=O)NCc1ccc(-c2nn(-c3ccc(N4CCN(CC5CCN(c6ccc(N7CCC(=O)NC7=O)c(C)c6)CC5)CC4)nc3)c3ncnc(N)c23)c(F)c1F [Compound I-43]
IC50 (Homo sapiens, 72 h): < 50 nM

Cc1cc(N2CCN(C[C@@H]3CCCC[C@H]3CN3CCN(c4ccc(-n5nc(-c6ccc(Oc7ccccc7)cc6)c6c(N)ncnc65)cn4)CC3)CC2)ccc1N1CCC(=O)NC1=O [III-20, 1-(4-(4-(((1R,2R)-2-((4-(5-(4-amino-3-(4-phenoxyphenyl)-1H-pyrazolo[3,4-d]pyrimidin-1-yl)pyridin-2-yl)piperazin-1-yl)methyl)cyclohexyl)methyl)piperazin-1-yl)-2-methylphenyl)dihydropyrimidine-2,4(1H,3H)-dione]
IC50 (Homo sapiens, 72 h): < 500 nM

Cc1cc(N2CCC(CN3CCN(c4ccc(-c5nc(-c6ccc(Oc7ccccc7)cc6)c6c(N)nccn56)cn4)CC3)CC2)ccc1N1CCC(=O)NC1=O [Compound I-54, 1-(4-(4-((4-(5-(8-amino-1-(4-phenoxyphenyl)imidazo[1,5-a]pyrazin-3-yl)pyridin-2-yl)piperazin-1-yl)methyl)piperidin-1-yl)-2-methylphenyl)dihydropyrimidine-2,4(1H,3H)-dione]
IC50 (Homo sapiens, 72 h): < 50 nM

CCc1cc(-c2nc(-c3ccc(CNC(=O)c4cc(F)ccc4OC)cc3)c3c(N)nccn23)ccc1N1CCN(CC2CCN(c3ccc(N4CCC(=O)NC4=O)c(C)c3)CC2)CC1 [Compound I-49]
IC50 (Homo sapiens, 72 h): < 100 nM

COc1ccc(F)cc1C(=O)NCc1ccc(-c2nn(-c3ccc(N4CCN(CC5CCN(c6ccc7c(c6)CN(C6CCC(=O)NC6=O)C7=O)CC5)C[C@@H]4C)nc3)c3ncnc(N)c23)cc1 (stereo partly drawn) [II-38, N-(4-(4-amino-1-(6-((2S)-4-((1-(2-(2,6-dioxopiperidin-3-yl)-1-oxoisoindol-5-yl)piperidin-4-yl)methyl)-2-methylpiperazin-1-yl)pyridin-3-yl)-1H-pyrazolo[3,4-d]pyrimidin-3-yl)benzyl)-5-fluoro-2-methoxybenzamide]
IC50 (Homo sapiens, 72 h): < 25 nM

COc1ccc(F)cc1C(=O)NCc1ccc(-c2nc(-c3ccc(N4CCN(CC5CCN(c6ccc(N7CCC(=O)NC7=O)c(C)c6)CC5)CC4)cc3)n3ccnc(N)c23)cc1F [Compound I-45]
IC50 (Homo sapiens, 72 h): < 50 nM
